Experimental data reported in US10499642B2, “Isoxazoline-substituted benzamides and analogues as insecticides” (SYNGENTA PARTICIPATIONS AG, priority 2015, dated 2019).

Key:
Format in all cases: in vivo
Diabrotica Balteata = test: Diabrotica balteata (corn root worm) maize sprout test; conditions: 96 h, read-out: effect in at least one of the two categories (mortality or growth inhibition)
Protocol: Diabrotica Balteata, (Corn Root Worm)
Maize sprouts, placed on an agar layer in 24-well microtiter plates were treated with aqueous test solutions prepared from 10′000 ppm DMSO stock solutions by spraying. After drying, the plates were infested with L2 larvae (6 to 10 per well). The samples were assessed for mortality and growth inhibition in comparison to untreated samples 4 days after infestation. The following compounds gave an effect of at least 80% in at least one of the two categories (mortality or growth inhibition) at an application rate of 200 ppm: […]

Spodoptera littoralis = Spodoptera littoralis (Egyptian cotton leaf worm) cotton leaf disc test; conditions: foliar, 72 h, read-out: control (at least one of mortality, anti-feedant effect, and growth inhibition)
Protocol: Spodoptera littoralis (Egyptian Cotton Leaf Worm)
Cotton leaf discs were placed on agar in 24-well microtiter plates and sprayed with aqueous test solutions prepared from 10′000 ppm DMSO stock solutions. After drying the leaf discs were infested with five L1 larvae. The samples were assessed for mortality, anti-feedant effect, and growth inhibition in comparison to untreated samples 3 days after infestation. Control of Spodoptera littoralis by a test sample is when at least one of mortality, anti-feedant effect, and growth inhibition is higher than the untreated sample.

Plutella xylostella = Plutella xylostella (diamond back moth) artificial diet test; conditions: 120 h, read-out: effect in at least one of the two categories (mortality or growth inhibition)
Protocol: Plutella xylostella (Diamond Back Moth):
24-well microtiter plates with artificial diet were treated with aqueous test solutions prepared from 10′000 ppm DMSO stock solutions by pipetting. After drying, the plates were infested with L2 larvae (10 to 15 per well). The samples were assessed for mortality and growth inhibition in comparison to untreated samples 5 days after infestation. The following compounds gave an effect of at least 80% in at least one of the two categories (mortality or growth inhibition) at an application rate of 200 ppm: […]

Tetranychus urticae = Tetranychus urticae (two-spotted spider mite) bean leaf disc test; conditions: foliar, 192 h
Protocol: Tetranychus urticae (Two-Spotted Spider Mite):
Bean leaf discs on agar in 24-well microtiter plates were sprayed with aqueous test solutions prepared from 10′000 ppm DMSO stock solutions. After drying the leaf discs were infested with a mite population of mixed ages. The samples were assessed for mortality on mixed population (mobile stages) 8 days after infestation.

Myzus persicae = Myzus persicae (green peach aphid) sunflower leaf disc test; conditions: foliar, 144 h
Protocol: Myzus persicae (Green Peach Aphid):
Sunflower leaf discs were placed on agar in a 24-well microtiter plate and sprayed with test solutions at an application rate of 200 ppm. After drying, the leaf discs were infested with an aphid population of mixed ages. After an incubation period of 6 days after treatment, samples were checked for mortality. The following compounds gave at least 80% mortality of Myzus persicae: […]

Thrips tabaci = Thrips tabaci (onion thrips) sunflower leaf disc test; conditions: foliar, 144 h
Protocol: Thrips tabaci (Onion Thrips):
Sunflower leaf discs were placed on agar in 24-well microtiter plates and sprayed with aqueous test solutions prepared from 10′000 ppm DMSO stock solutions. After drying the leaf discs were infested with a thrips population of mixed ages. The samples were assessed for mortality 6 days after infestation.

Cc1cc(C2=NO[C@@](c3cc(Cl)c(F)c(Cl)c3)(C(F)(F)F)C2)ccc1C(=O)NC1CC(C(F)(F)F)=NO1 (stereo partly drawn) [Compound A005, 4-[(5S)-5-(3,5-dichloro-4-fluoro-phenyl)-5-(trifluoromethyl)-4H-isoxazol-3-yl]-2-methyl-N-[3-(trifluoromethyl)-4,5-dihydroisoxazol-5-yl]benzamide]
≥ 80%: percent effect (mortality or growth inhibition) at 200 ppm (Diabrotica Balteata) | percent control (mortality, anti-feedant effect or growth inhibition) at 200 ppm (Spodoptera littoralis) | percent effect (mortality or growth inhibition) at 200 ppm (Plutella xylostella) | mortality at 200 ppm (Tetranychus urticae) | mortality at 200 ppm (Myzus persicae) | mortality at 200 ppm (Thrips tabaci)

CC1=NOC(N(C=O)C(=O)c2ccc(C3=NO[C@@](c4cc(Cl)c(F)c(Cl)c4)(C(F)(F)F)C3)cc2C)C1 (stereo partly drawn) [Compound A008, 4-[(5S)-5-(3,5-dichloro-4-fluoro-phenyl)-5-(trifluoromethyl)-4H-isoxazol-3-yl]-N-formyl-2-methyl-N-(3-methyl-4,5-dihydroisoxazol-5-yl)benzamide]
≥ 80%: percent effect (mortality or growth inhibition) at 200 ppm (Diabrotica Balteata) | percent control (mortality, anti-feedant effect or growth inhibition) at 200 ppm (Spodoptera littoralis) | percent effect (mortality or growth inhibition) at 200 ppm (Plutella xylostella) | mortality at 200 ppm (Tetranychus urticae) | mortality at 200 ppm (Myzus persicae) | mortality at 200 ppm (Thrips tabaci)

CC1=NOC(NC(=O)c2ccc(C3=NO[C@@](c4cc(Cl)c(F)c(Cl)c4)(C(F)(F)F)C3)cc2C)C1 (stereo partly drawn) [Compound A009, 4-[(5S)-5-(3,5-dichloro-4-fluoro-phenyl)-5-(trifluoromethyl)-4H-isoxazol-3-yl]-2-methyl-N-(3-methyl-4,5-dihydroisoxazol-5-yl)benzamide]
≥ 80%: percent effect (mortality or growth inhibition) at 200 ppm (Diabrotica Balteata) | percent control (mortality, anti-feedant effect or growth inhibition) at 200 ppm (Spodoptera littoralis) | percent effect (mortality or growth inhibition) at 200 ppm (Plutella xylostella) | mortality at 200 ppm (Tetranychus urticae) | mortality at 200 ppm (Myzus persicae) | mortality at 200 ppm (Thrips tabaci)

Cc1cc(C2=NO[C@@](c3cc(Cl)c(Cl)c(Cl)c3)(C(F)(F)F)C2)ccc1C(=O)N(C=O)C1CC(Cl)=NO1 (stereo partly drawn) [Compound A010, N-(3-chloro-4,5-dihydroisoxazol-5-yl)-N-formyl-2-methyl-4-[(5S)-5-(3,4,5-trichlorophenyl)-5-(trifluoromethyl)-4H-isoxazol-3-yl]benzamide]
≥ 80%: percent effect (mortality or growth inhibition) at 200 ppm (Diabrotica Balteata) | percent control (mortality, anti-feedant effect or growth inhibition) at 200 ppm (Spodoptera littoralis) | percent effect (mortality or growth inhibition) at 200 ppm (Plutella xylostella) | mortality at 200 ppm (Tetranychus urticae) | mortality at 200 ppm (Myzus persicae) | mortality at 200 ppm (Thrips tabaci)

Cc1cc(C2=NO[C@@](c3cc(Cl)c(F)c(Cl)c3)(C(F)(F)F)C2)ccc1C(=O)N(C=O)C1CC(Cl)=NO1 (stereo partly drawn) [Compound A011, N-(3-chloro-4,5-dihydroisoxazol-5-yl)-4-[(5S)-5-(3,5-dichloro-4-fluoro-phenyl)-5-(trifluoromethyl)-4H-isoxazol-3-yl]-N-formyl-2-methyl-benzamide]
≥ 80%: percent effect (mortality or growth inhibition) at 200 ppm (Diabrotica Balteata) | percent control (mortality, anti-feedant effect or growth inhibition) at 200 ppm (Spodoptera littoralis) | percent effect (mortality or growth inhibition) at 200 ppm (Plutella xylostella) | mortality at 200 ppm (Tetranychus urticae) | mortality at 200 ppm (Myzus persicae) | mortality at 200 ppm (Thrips tabaci)

Cc1cc(C2=NO[C@@](c3cc(Cl)cc(C(F)(F)F)c3)(C(F)(F)F)C2)ccc1C(=O)N(C=O)C1CC(Cl)=NO1 (stereo partly drawn) [Compound A012, N-(3-chloro-4,5-dihydroisoxazol-5-yl)-4-[(5S)-5-[3-chloro-5-(trifluoromethyl)phenyl]-5-(trifluoromethyl)-4H-isoxazol-3-yl]-N-formyl-2-methyl-benzamide]
≥ 80%: percent effect (mortality or growth inhibition) at 200 ppm (Diabrotica Balteata) | percent control (mortality, anti-feedant effect or growth inhibition) at 200 ppm (Spodoptera littoralis) | percent effect (mortality or growth inhibition) at 200 ppm (Plutella xylostella) | mortality at 200 ppm (Tetranychus urticae) | mortality at 200 ppm (Myzus persicae) | mortality at 200 ppm (Thrips tabaci)

Cc1cc(C2=NO[C@@](c3cc(Cl)c(Cl)c(Cl)c3)(C(F)(F)F)C2)ccc1C(=O)NC1CC(Cl)=NO1 (stereo partly drawn) [Compound A013, N-(3-chloro-4,5-dihydroisoxazol-5-yl)-2-methyl-4-[(5S)-5-(3,4,5-trichlorophenyl)-5-(trifluoromethyl)-4H-isoxazol-3-yl]benzamide]
≥ 80%: percent effect (mortality or growth inhibition) at 200 ppm (Diabrotica Balteata) | percent control (mortality, anti-feedant effect or growth inhibition) at 200 ppm (Spodoptera littoralis) | percent effect (mortality or growth inhibition) at 200 ppm (Plutella xylostella) | mortality at 200 ppm (Tetranychus urticae) | mortality at 200 ppm (Myzus persicae) | mortality at 200 ppm (Thrips tabaci)

CC(=O)C1=NOC(N(C=O)C(=O)c2ccc(C3=NO[C@@](c4cc(Cl)c(F)c(Cl)c4)(C(F)(F)F)C3)cc2C)C1 (stereo partly drawn) [Compound A014, N-(3-acetyl-4,5-dihydroisoxazol-5-yl)-4-[(5S)-5-(3,5-dichloro-4-fluoro-phenyl)-5-(trifluoromethyl)-4H-isoxazol-3-yl]-N-formyl-2-methyl-benzamide]
≥ 80%: percent effect (mortality or growth inhibition) at 200 ppm (Diabrotica Balteata) | percent control (mortality, anti-feedant effect or growth inhibition) at 200 ppm (Spodoptera littoralis) | percent effect (mortality or growth inhibition) at 200 ppm (Plutella xylostella) | mortality at 200 ppm (Tetranychus urticae) | mortality at 200 ppm (Myzus persicae) | mortality at 200 ppm (Thrips tabaci)

CC(=O)C1=NOC(NC(=O)c2ccc(C3=NO[C@@](c4cc(Cl)c(F)c(Cl)c4)(C(F)(F)F)C3)cc2C)C1 (stereo partly drawn) [Compound A015, N-(3-acetyl-4,5-dihydroisoxazol-5-yl)-4-[(5S)-5-(3,5-dichloro-4-fluoro-phenyl)-5-(trifluoromethyl)-4H-isoxazol-3-yl]-2-methyl-benzamide]
≥ 80%: percent effect (mortality or growth inhibition) at 200 ppm (Diabrotica Balteata) | percent control (mortality, anti-feedant effect or growth inhibition) at 200 ppm (Spodoptera littoralis) | percent effect (mortality or growth inhibition) at 200 ppm (Plutella xylostella) | mortality at 200 ppm (Tetranychus urticae) | mortality at 200 ppm (Myzus persicae) | mortality at 200 ppm (Thrips tabaci)

Cc1cc(C2=NO[C@@](c3cc(Cl)cc(C(F)(F)F)c3)(C(F)(F)F)C2)ccc1C(=O)NC1CC(Cl)=NO1 (stereo partly drawn) [Compound A016, N-(3-chloro-4,5-dihydroisoxazol-5-yl)-4-[(5S)-5-[3-chloro-5-(trifluoromethyl)phenyl]-5-(trifluoromethyl)-4H-isoxazol-3-yl]-2-methyl-benzamide]
≥ 80%: percent effect (mortality or growth inhibition) at 200 ppm (Diabrotica Balteata) | percent control (mortality, anti-feedant effect or growth inhibition) at 200 ppm (Spodoptera littoralis) | percent effect (mortality or growth inhibition) at 200 ppm (Plutella xylostella) | mortality at 200 ppm (Tetranychus urticae) | mortality at 200 ppm (Myzus persicae) | mortality at 200 ppm (Thrips tabaci)

O=CN(C(=O)c1ccc(C2=NO[C@@](c3cc(Cl)c(Cl)c(Cl)c3)(C(F)(F)F)C2)cc1Cl)C1CC(Cl)=NO1 (stereo partly drawn) [Compound A017, 2-chloro-N-(3-chloro-4,5-dihydroisoxazol-5-yl)-N-formyl-4-[(5S)-5-(3,4,5-trichlorophenyl)-5-(trifluoromethyl)-4H-isoxazol-3-yl]benzamide]
≥ 80%: percent effect (mortality or growth inhibition) at 200 ppm (Diabrotica Balteata) | percent control (mortality, anti-feedant effect or growth inhibition) at 200 ppm (Spodoptera littoralis) | percent effect (mortality or growth inhibition) at 200 ppm (Plutella xylostella) | mortality at 200 ppm (Tetranychus urticae) | mortality at 200 ppm (Myzus persicae) | mortality at 200 ppm (Thrips tabaci)

O=C(NC1CC(Cl)=NO1)c1ccc(C2=NO[C@@](c3cc(Cl)c(Cl)c(Cl)c3)(C(F)(F)F)C2)cc1Cl (stereo partly drawn) [Compound A018, 2-chloro-N-(3-chloro-4,5-dihydroisoxazol-5-yl)-4-[(5S)-5-(3,4,5-trichlorophenyl)-5-(trifluoromethyl)-4H-isoxazol-3-yl]benzamide]
≥ 80%: percent effect (mortality or growth inhibition) at 200 ppm (Diabrotica Balteata) | percent control (mortality, anti-feedant effect or growth inhibition) at 200 ppm (Spodoptera littoralis) | percent effect (mortality or growth inhibition) at 200 ppm (Plutella xylostella) | mortality at 200 ppm (Tetranychus urticae) | mortality at 200 ppm (Myzus persicae) | mortality at 200 ppm (Thrips tabaci)
